In PubChem BioAssay AID248 (DTP/NCI, 2004):
Inconclusive results and toxic doses are left out. No stated cut-off is given here; in the data, active means T/C of 150% or more; inactive means T/C below 125%.

Test system: L1210 leukemia ip in BDF1 mice, survival T/C
Assay: NCI In Vivo Anticancer Drug Screen. Data for tumor model L1210 Leukemia (intraperitoneal) in B6D2F1 (BDF1) mice
Settings: endpoint: mean survival time, higher = longer survival
Summary of the method: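 Read-out is survival time, reported as the treated-group measurement over the vehicle-control measurement.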

[1] = dose: 100.0 mg/kg/injection, schedule: Q01DX001 (ip), vehicle: saline
[2] = dose: 100.0 mg/kg/injection, schedule: Q04DX003 (ip), vehicle: saline
[3] = dose: 100.0 mg/kg/injection, schedule: Q04DX003 (ip), vehicle: saline with Tween-80
[4] = dose: 200.0 mg/kg/injection, schedule: Q04DX003 (ip), vehicle: saline with Tween-80
[5] = dose: 400.0 mg/kg/injection, schedule: Q04DX003 (ip), vehicle: saline with Tween-80
[6] = dose: 100.0 mg/kg/injection, schedule: Q01DX009 (ip), vehicle: saline with Tween-80
[7] = dose: 200.0 mg/kg/injection, schedule: Q01DX009 (ip), vehicle: saline with Tween-80
[8] = dose: 400.0 mg/kg/injection, schedule: Q01DX009 (ip), vehicle: saline with Tween-80
[9] = dose: 100.0 mg/kg/injection, schedule: Q01DX001 (ip), vehicle: carboxymethylcellulose (CMC)
[10] = dose: 200.0 mg/kg/injection, schedule: Q01DX001 (ip), vehicle: carboxymethylcellulose (CMC)
[11] = dose: 200.0 mg/kg/injection, schedule: Q04DX003 (ip), vehicle: saline

Measured: T/C

CC(N)Cc1ccccc1 (stereo unspecified)
inactive: dose: 1.17 mg/kg/injection, schedule: Q04DX003 (ip), vehicle: saline 98 % of control | dose: 2.34 mg/kg/injection, schedule: Q04DX003 (ip), vehicle: saline 98 % of control | dose: 2.5 mg/kg/injection, schedule: Q04DX003 (ip), vehicle: saline 100 % of control | dose: 4.68 mg/kg/injection, schedule: Q01DX009 (ip), vehicle: saline 94 % of control | dose: 4.68 mg/kg/injection, schedule: Q04DX003 (ip), vehicle: saline 93 % of control | dose: 5.0 mg/kg/injection, schedule: Q04DX003 (ip), vehicle: saline 96 % of control | dose: 6.25 mg/kg/injection, schedule: Q01DX009 (ip), vehicle: saline 103 % of control | dose: 9.37 mg/kg/injection, schedule: Q01DX009 (ip), vehicle: saline 93 % of control | dose: 9.37 mg/kg/injection, schedule: Q04DX003 (ip), vehicle: saline 106 % of control | dose: 10.0 mg/kg/injection, schedule: Q04DX003 (ip), vehicle: saline 97 % of control | dose: 12.5 mg/kg/injection, schedule: Q01DX001 (ip), vehicle: saline 96 % of control | dose: 12.5 mg/kg/injection, schedule: Q01DX009 (ip), vehicle: saline 97 % of control | dose: 18.74 mg/kg/injection, schedule: Q04DX003 (ip), vehicle: saline 107 % of control | dose: 18.75 mg/kg/injection, schedule: Q01DX009 (ip), vehicle: saline 87 % of control | dose: 18.75 mg/kg/injection, schedule: Q04DX003 (ip), vehicle: saline 97 % of control | dose: 20.0 mg/kg/injection, schedule: Q04DX003 (ip), vehicle: saline 97 % of control | dose: 25.0 mg/kg/injection, schedule: Q01DX001 (ip), vehicle: saline 101 % of control | dose: 25.0 mg/kg/injection, schedule: Q01DX009 (ip), vehicle: saline 100 % of control | dose: 25.0 mg/kg/injection, schedule: Q04DX003 (ip), vehicle: saline 100 % of control | dose: 37.48 mg/kg/injection, schedule: Q03HX024 (ip), vehicle: saline 96 % of control | dose: 37.5 mg/kg/injection, schedule: Q01DX009 (ip), vehicle: saline 103 % of control | dose: 37.5 mg/kg/injection, schedule: Q04DX003 (ip), vehicle: saline 108 % of control | dose: 40.0 mg/kg/injection, schedule: Q04DX003 (ip), vehicle: saline 103 % of control | dose: 50.0 mg/kg/injection, schedule: Q01DX001 (ip), vehicle: saline 109 % of control | dose: 50.0 mg/kg/injection, schedule: Q01DX009 (ip), vehicle: saline 101 % of control | dose: 50.0 mg/kg/injection, schedule: Q04DX003 (ip), vehicle: saline 100 % of control | dose: 75.0 mg/kg/injection, schedule: Q04DX003 (ip), vehicle: saline 100 % of control | [1] 102 % of control | [2] 105 % of control

CN(C(=O)OCc1ccccc1)c1ccc(C(=O)O)cc1
inactive: [1] 97 % of control | dose: 200.0 mg/kg/injection, schedule: Q01DX001 (ip), vehicle: saline 94 % of control | dose: 400.0 mg/kg/injection, schedule: Q01DX001 (ip), vehicle: saline 97 % of control

Cc1ccc(C(=O)C2CN(C)CCC2(O)c2ccc(C)cc2)cc1 (stereo unspecified)
inactive: [3] 96 % of control | [4] 103 % of control | [5] 96 % of control

NC(=S)N/N=C/c1ccc(Cl)cc1
inactive: dose: 25.0 mg/kg/injection, schedule: Q01DX009 (ip), vehicle: Klucel (hydroxypropylcellulose) (HPC) 103 % of control | dose: 50.0 mg/kg/injection, schedule: Q01DX009 (ip), vehicle: Klucel (hydroxypropylcellulose) (HPC) 101 % of control

CCCCCSc1nccc(N)n1
inactive: dose: 100.0 mg/kg/injection, schedule: Q01DX001 (ip), vehicle: saline with Tween-80 97 % of control | dose: 200.0 mg/kg/injection, schedule: Q01DX001 (ip), vehicle: saline with Tween-80 103 % of control

CCOC(=O)/C=C(\C)C(C)=O
inactive: [6] 92 % of control | [3] 98 % of control | [7] 96 % of control | [4] 103 % of control | [8] 92 % of control | [5] 104 % of control

CN(C)CCN(C)CCN(C)CCN(C)C
inactive: dose: 100.0 mg/kg/injection, schedule: Q01DX009 (ip), vehicle: saline 95 % of control | dose: 200.0 mg/kg/injection, schedule: Q01DX009 (ip), vehicle: saline 100 % of control

N#CCCC(=O)c1cccnc1
inactive: dose: 100.0 mg/kg/injection, schedule: Q04DX002 (ip), vehicle: saline 108 % of control | dose: 200.0 mg/kg/injection, schedule: Q04DX002 (ip), vehicle: saline 90 % of control | dose: 400.0 mg/kg/injection, schedule: Q04DX002 (ip), vehicle: saline 93 % of control

CC(=O)OC1CC2CC(C1)C(C#N)C(=O)NC(=O)C2C#N (stereo unspecified)
inactive: [9] 102 % of control | [10] 96 % of control | dose: 400.0 mg/kg/injection, schedule: Q01DX001 (ip), vehicle: carboxymethylcellulose (CMC) 92 % of control

O=C(COc1ccc(Cl)c(Cl)c1)Nc1ccc[n+](Cc2ccc(Cl)c(S(=O)(=O)F)c2)c1
inactive: [2] 106 % of control | [11] 94 % of control | dose: 400.0 mg/kg/injection, schedule: Q04DX003 (ip), vehicle: saline 105 % of control

Cc1nc(N)sc1N=Nc1cccc(Cl)c1Cl
inactive: dose: 75.0 mg/kg/injection, schedule: Q01DX001 (ip), vehicle: saline 88 % of control | dose: 150.0 mg/kg/injection, schedule: Q01DX001 (ip), vehicle: saline 92 % of control | dose: 300.0 mg/kg/injection, schedule: Q01DX001 (ip), vehicle: saline 93 % of control

CC(C)OC(=O)N1CCN(C(=O)OC(C)C)CC1
inactive: dose: 100.0 mg/kg/injection, schedule: Q01DX009 (ip), vehicle: Klucel (hydroxypropylcellulose) (HPC) 97 % of control | dose: 100.0 mg/kg/injection, schedule: Q04DX002 (ip), vehicle: Klucel (hydroxypropylcellulose) (HPC) 93 % of control | dose: 200.0 mg/kg/injection, schedule: Q01DX009 (ip), vehicle: Klucel (hydroxypropylcellulose) (HPC) 94 % of control | dose: 200.0 mg/kg/injection, schedule: Q04DX002 (ip), vehicle: Klucel (hydroxypropylcellulose) (HPC) 93 % of control | dose: 400.0 mg/kg/injection, schedule: Q01DX009 (ip), vehicle: Klucel (hydroxypropylcellulose) (HPC) 102 % of control | dose: 400.0 mg/kg/injection, schedule: Q04DX002 (ip), vehicle: Klucel (hydroxypropylcellulose) (HPC) 117 % of control

CCCNC(=O)Oc1ccc(C(=O)OCC)cc1
inactive: [6] 93 % of control | [7] 98 % of control | [8] 94 % of control

COc1c2ccoc2nc2c(OC)c(OCC(O)C(C)(C)O)ccc12 (stereo unspecified)
inactive: dose: 50.0 mg/kg/injection, schedule: Q01DX Z (ip), vehicle: carboxymethylcellulose (CMC) 97 % of control | dose: 100.0 mg/kg/injection, schedule: Q01DX Z (ip), vehicle: carboxymethylcellulose (CMC) 100 % of control

Nc1nc(N)c(N=Nc2ccccc2)c(=O)[nH]1
inactive: dose: 50.0 mg/kg/injection, schedule: Q01DX001 (ip), vehicle: carboxymethylcellulose (CMC) 88 % of control | dose: 50.0 mg/kg/injection, schedule: Q04DX003 (ip), vehicle: carboxymethylcellulose (CMC) 94 % of control | [9] 90 % of control | dose: 100.0 mg/kg/injection, schedule: Q04DX003 (ip), vehicle: carboxymethylcellulose (CMC) 93 % of control | [10] 93 % of control | dose: 200.0 mg/kg/injection, schedule: Q04DX003 (ip), vehicle: carboxymethylcellulose (CMC) 94 % of control

[Cl][Pt+2][Cl].[NH-]c1ccc([N+](=O)[O-])cc1.[NH-]c1ccc([N+](=O)[O-])cc1
inactive: [2] 102 % of control | [11] 113 % of control

O=C1c2ccccc2C(=O)C1c1ccc2ccccc2n1
inactive: [3] 95 % of control | [4] 91 % of control | [5] 93 % of control
